15 molecules from patent publication US7714146B2, “Azulene-oxindole compounds as multiple-kinase inhibitors and useful as anticancer agents” (Industrial Technology Research Institute, priority 2006, dated 2010) can be followed below.

Format in all cases: biochemical
Experiment [1] has as its target T1, human c-KIT (Thr544-Val976) (Homo sapiens, UniProt P10721).
T1 construct: human c-KIT (Thr544-Val976); GST (N); purchased Cell Signaling Technology; host or cells: baculovirus expression system
As to the kind of experiment: c-KIT kinase assay (HTScan kit, DELFIA). Particulars: for inhibition at 0.1 µM: compound at 0.1 μM, read-out: c-KIT 0.1 μM, % of inhibition relative to control; for inhibition at 1 µM: compound at 1 μM, read-out: c-KIT 1 μM, % of inhibition relative to control. The method, then: (§1) Compounds 1-100 were treated for their efficacy in inhibiting activities of FLT-3, c-KIT, KDR/Flk-1, PDGFR-beta, EGFR, and PKC kinases by biochemical DELFIA (Dissociation Enhanced Lanthanide FIA) assays according to the procedure described below. The assays were conducted by, Division of Cell Engineering, Biomedical Engineering Research Laboratories, Industrial Technology Research Institute, Bldg. 53, 195, sec. 4, Chung Hsing Rd. Chutung, Hsinchu, Taiwan 310, R.O.C.
(§2) The c-KIT assay was conducted following the protocol described in Protocol for HTScan® c-KIT Kinase Assay Kit (Cell Signaling Technology®). The assay was conducted under the following conditions: c-KIT source: The GST-c-KIT fusion protein was produced using a baculovirus expression system with a construct expressing human c-KIT (Thr544-Val976) with an amino-terminal GST tag, substrate: 1.5 μM This biotinylated peptide contains the residues surrounding Tyr-996 of KDR, vehicle: 1% DMSO, pre-incubation time/temperature: 5 minutes at room temperature, incubation time/temperature: 30 minutes at room temperature, incubation buffer: 60 mM HEPES pH 7.5, 5 mM MgCl2, 5 mM MnCl2, 3 μM Na3VO4, 1.25 mM DTT, 20 μM ATP, and quantitative method: DELFIA® Assay.

In experiment [2] the target is T2, human FLT-3 (Arg571-Ser993) (Homo sapiens, UniProt P36888).
T2 construct: human FLT-3 (Arg571-Ser993); GST (N); purchased Cell Signaling Technology; host or cells: baculovirus expression system
T2 sequence (P36888 571-993): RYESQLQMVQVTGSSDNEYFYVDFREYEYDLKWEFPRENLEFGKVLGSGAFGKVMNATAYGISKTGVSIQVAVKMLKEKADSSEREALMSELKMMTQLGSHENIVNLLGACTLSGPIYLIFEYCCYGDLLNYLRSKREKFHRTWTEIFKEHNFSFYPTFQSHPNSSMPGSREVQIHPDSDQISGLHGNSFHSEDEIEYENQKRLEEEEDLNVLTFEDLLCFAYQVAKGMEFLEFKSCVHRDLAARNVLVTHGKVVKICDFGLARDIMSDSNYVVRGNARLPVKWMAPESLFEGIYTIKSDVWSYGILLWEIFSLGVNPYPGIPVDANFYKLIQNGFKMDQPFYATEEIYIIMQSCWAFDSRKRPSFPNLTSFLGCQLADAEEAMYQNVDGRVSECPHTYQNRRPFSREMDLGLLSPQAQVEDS
As to the kind of experiment: FLT-3 kinase assay (HTScan kit, DELFIA). Particulars: for inhibition at 0.1 µM: compound at 0.1 μM, read-out: FLT-3 0.1 μM, % of inhibition relative to control; for inhibition at 1 µM: compound at 1 μM, read-out: FLT-3 1 μM, % of inhibition relative to control. The method, then: as §1
as §2, with “FLT-3” for “c-KIT”, “GST-kinase” for “GST-c-KIT”, “FLT-3 (Arg571-Ser993) (GenBank accession No. NM_004119)” for “c-KIT (Thr544-Val976)”, “Gastrin Precursor Biotinylated Peptide (with Tyr87 as phosphorylation site),” for “This biotinylated peptide contains the residues surrounding Tyr-996 of KDR,”

For experiment [3], the target named is T3, human VEGFR-2 (Val789-Val1356) (Homo sapiens, UniProt P35968).
T3 construct: human VEGFR-2 (Val789-Val1356); GST (N); purchased Cell Signaling Technology; host or cells: baculovirus expression system
Put plainly: KDR kinase assay (HTScan VEGFR-2 kit, DELFIA). Particulars: for inhibition at 0.1 µM: compound at 0.1 μM, read-out: KDR 0.1 μM, % of inhibition relative to control; for inhibition at 1 µM: compound at 1 μM, read-out: KDR 1 μM, % of inhibition relative to control. The method, then:
as §1
as §2, with “The KDR” for “The c-KIT”, “HTScan® VEGFR-2” for “HTScan® c-KIT”, “conditions: KDR” for “conditions: c-KIT”, “The GST-Kinase” for “The GST-c-KIT”, “human VEGFR-2 (Val789-Val1356) (GenBank Accession No. NM_002253)” for “human c-KIT (Thr544-Val976)”, “μM Gastrin Precursor Biotinylated Peptide (with Tyr87 as phosphorylation site),” for “μM This biotinylated peptide contains the residues surrounding Tyr-996 of KDR,”

Broadly, the inhibition is the drop in the measured response relative to a control, in per cent. A word on the IC50: it is the concentration that inhibits the measured activity by half.

T1 sequence (P10721 544-976): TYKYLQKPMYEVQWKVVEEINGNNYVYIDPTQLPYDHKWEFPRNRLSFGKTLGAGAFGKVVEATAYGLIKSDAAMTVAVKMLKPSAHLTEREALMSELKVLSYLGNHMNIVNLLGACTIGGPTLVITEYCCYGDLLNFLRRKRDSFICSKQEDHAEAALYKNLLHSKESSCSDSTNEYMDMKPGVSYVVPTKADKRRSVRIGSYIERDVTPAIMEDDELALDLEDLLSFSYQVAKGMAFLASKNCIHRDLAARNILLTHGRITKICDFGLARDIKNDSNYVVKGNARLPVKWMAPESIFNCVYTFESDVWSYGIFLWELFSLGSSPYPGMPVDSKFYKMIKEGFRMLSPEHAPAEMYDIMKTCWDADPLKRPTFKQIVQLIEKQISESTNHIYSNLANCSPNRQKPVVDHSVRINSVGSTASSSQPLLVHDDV
T3 sequence (P35968 789-1356): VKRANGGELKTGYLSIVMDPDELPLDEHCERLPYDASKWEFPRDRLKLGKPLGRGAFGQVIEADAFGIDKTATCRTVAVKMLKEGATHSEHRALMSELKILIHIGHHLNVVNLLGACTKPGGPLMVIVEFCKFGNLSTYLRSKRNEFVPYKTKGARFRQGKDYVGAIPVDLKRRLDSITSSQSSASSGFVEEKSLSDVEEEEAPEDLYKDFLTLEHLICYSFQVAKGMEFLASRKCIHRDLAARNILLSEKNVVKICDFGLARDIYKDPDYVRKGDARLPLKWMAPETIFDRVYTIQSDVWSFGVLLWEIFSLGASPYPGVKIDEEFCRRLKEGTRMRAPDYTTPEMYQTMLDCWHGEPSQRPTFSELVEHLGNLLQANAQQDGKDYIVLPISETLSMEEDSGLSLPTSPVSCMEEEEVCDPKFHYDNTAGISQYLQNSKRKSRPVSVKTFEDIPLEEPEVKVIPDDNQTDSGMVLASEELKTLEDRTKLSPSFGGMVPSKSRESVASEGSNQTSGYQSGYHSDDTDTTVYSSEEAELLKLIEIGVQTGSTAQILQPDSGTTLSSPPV

For `O=C1Nc2ccc(F)cc2/C1=C/c1c(Br)c2cccccc-2c1Br` [Compound 61, 3-(1,3-Dibromo-azulen-2-ylmethylene)-5-fluoro-1,3-dihydro-indol-2-one], the inhibition at 0.1 µM in experiment [1] was 30.5%; in experiment [2] it was 62.5%; in experiment [3] it was 44.2%. The inhibition at 1 µM was found to be 30.5% in experiment [1], 42.5% in experiment [2] and 52.6% in experiment [3].

On to `O=C1Nc2cc(Br)ccc2/C1=C\c1ccc2cccccc1-2` [Compound 28, 3-Azulen-1-ylmethylene-6-bromo-1,3-dihydro-indol-2-one], for which the inhibition at 0.1 µM in experiment [1] was found to be 6.8%; in experiment [2], 1.9%. The inhibition at 1 µM was 6.8% in experiment [1], 24.5% in experiment [2] and 22.4% in experiment [3].

As for `CN(C)CCNC(=O)c1cc(/C=C2/C(=O)Nc3ccc(F)cc32)c2cccccc1-2` [Compound 67, 3-(5-Fluoro-2-oxo-1,2-dihydro-indol-3-ylidenemethyl)-azulene-1-carboxylic acid (2-dimethylamino-ethyl)-amide], the inhibition at 0.1 µM in experiment [1] was 30.2%. Besides, the figures for the inhibition at 1 µM in experiment [1], in experiment [2] and in experiment [3] were 30.2%, 14% and 7.4%, respectively.

With `Cc1cc(C=C2C(=O)Nc3c(F)cccc32)c2ccccc(OCCCN(C)C)c1-2` [Compound 99, 3-[4-(3-Dimethylamino-propoxy)-3-methyl-azulen-1-ylmethylene]-7-fluoro-1,3-dihydro-indol-2-one], the figures for the inhibition at 0.1 µM in experiment [1], in experiment [2] and in experiment [3] were 34.4%, 7.3% and 28.7%, respectively. Besides, the results for the inhibition at 1 µM in experiment [1], in experiment [2] and in experiment [3] were 34.4%, 59.4% and 73.9%, respectively.

In the case of `CCOC(=O)N1CCC(Nc2ccc3c(c2)/C(=C\c2cc(C)c4c(OCCCN(C)C)ccccc2-4)C(=O)N3)CC1` [Compound 85, 4-{3-[4-(3-Dimethylamino-propoxy)-3-methyl-azulen-1-ylmethylene]-2-oxo-2,3-dihydro-1H-indol-5-ylamino}-piperidine-1-carboxylic acid ethyl ester], in experiment [1], the inhibition at 0.1 µM was 2.4%. Moreover, the inhibition at 1 µM in experiment [1] was determined as 2.4%; in experiment [2] it was 2%; in experiment [3], 4.4%.

Take `Cc1cc(C=C2C(=O)Nc3ccccc32)c2ccccc(OCCCN(C)C)c1-2` [Compound 98, 3-[4-(3-Dimethylamino-propoxy)-3-methyl-azulen-1-ylmethylene]-1,3-dihydro-indol-2-one]: the values for the inhibition at 0.1 µM in experiment [1], in experiment [2] and in experiment [3] were 60.4%, 46.1% and 38.6%, respectively. Besides, the values for the inhibition at 1 µM in experiment [1], in experiment [2] and in experiment [3] were 60.4%, 85.4% and 80.3%, respectively.

Consider `O=C1Nc2ccc(F)cc2/C1=C\c1cc2cccccc-2c1F` [Compound 56, 5-Fluoro-3-(1-fluoro-azulen-2-ylmethylene)-1,3-dihydro-indol-2-one], for which the inhibition at 0.1 µM is 34.8% in experiment [1], 12.6% in experiment [2] and 35.4% in experiment [3]. The results for the inhibition at 1 µM in experiment [1], in experiment [2] and in experiment [3] were 34.8%, 53% and 34.2%, respectively.

As to `CCN(CC)CCCOc1ccccc2c(C=C3C(=O)Nc4ccc(F)cc43)cc(C)c1-2` [Compound 90, 3-[4-(3-Diethylamino-propoxy)-3-methyl-azulen-1-ylmethylene]-5-fluoro-1,3-dihydro-indol-2-one], the inhibition at 0.1 µM in experiment [1] turned out to be 83.2%; in experiment [2], 33.9%. The figures for the inhibition at 1 µM in experiment [1], in experiment [2] and in experiment [3] were 83.2%, 85.5% and 32.8%, respectively. The IC50 in experiment [1] (read-out: c-KIT kinase inhibition (IC50)) was found to be 77.9 nM; in experiment [2] (read-out: FLT-3 kinase inhibition (IC50)) it was 10.1 nM.

For the molecule `Cc1cc(/C=C2/C(=O)N(Cc3ccc(C#N)cc3)c3ccccc32)c2c(C)ccc(C(C)C)cc1-2` [Compound 74, 4-[3-(5-Isopropyl-3,8-dimethyl-azulen-1-ylmethylene)-2-oxo-2,3-dihydro-indol-1-ylmethyl]-benzonitrile], in experiment [2], the inhibition at 0.1 µM was 45.8% and the inhibition at 1 µM was 69.4%. Also, in experiment [3], the inhibition at 0.1 µM came out at 5.1% and the inhibition at 1 µM worked out at 70.9%.

On to `COC(=O)C1C2=CC=CC=C(OC)C2=C(/C=C2\C(=O)Nc3ccc(F)cc32)C1OC` (stereo not shown) [Compound 69, 3-(5-Fluoro-2-oxo-1,2-dihydro-indol-3-ylidenemethyl)-2,4-dimethoxy-1,2-dihydro-azulene-1-carboxylic acid methyl ester], for which the values for the inhibition at 0.1 µM in experiment [2] and in experiment [3] were 17.2% and 32.9%, respectively. Also, the inhibition at 1 µM in experiment [3] was found to be 42.5%.

For the molecule `COC(=O)c1cc(/C=C2\C(=O)Nc3ccc(F)cc32)c2cccccc1-2` [Compound 76, 3-(5-Fluoro-2-oxo-1,2-dihydro-indol-3-ylidenemethyl)-azulene-1-carboxylic acid methyl ester], in experiment [1], the inhibition at 0.1 µM was 28.2% and the inhibition at 1 µM stood at 28.2%.

On to `Cc1cc(C=C2C(=O)Nc3ccc(S(=O)(=O)Nc4ccccn4)cc32)c2cccccc1-2` [Compound 77], for which, in experiment [1], the inhibition at 0.1 µM is 23.4% and the inhibition at 1 µM was 23.4%.

In the case of `O=C1/C(=C\c2ccc3cccccc2-3)c2ccccc2N1C(c1ccccc1)c1ccccc1` [Compound 4, 3-Azulen-1-ylmethylene-1-benzhydryl-1,3-dihydro-indol-2-one], the inhibition at 1 µM in experiment [2] was 14.7%.

As to `O=C1Nc2ccc(Cl)cc2/C1=C/c1ccc2cccccc1-2` [Compound 23, 3-Azulen-1-ylmethylene-5-chloro-1,3-dihydro-indol-2-one], the inhibition at 0.1 µM was found to be 18.6% in experiment [2] and 39.5% in experiment [3]. The inhibition at 1 µM in experiment [2] is 43.4%; in experiment [3], 28.3%.

As to `COc1ccc(CN2C(=O)/C(=C/c3cc(C)c4cc(C(C)C)ccc(C)c3-4)c3ccccc32)cc1` [Compound 73, 3-(5-Isopropyl-3,8-dimethyl-azulen-1-ylmethylene)-1-(4-methoxy-benzyl)-1,3-dihydro-indol-2-one], in experiment [2], the inhibition at 0.1 µM turned out to be 33.9% and the inhibition at 1 µM was 32.8%. In addition, in experiment [3], the inhibition at 0.1 µM was found to be 40.4% and the inhibition at 1 µM came to 52.4%.
